In patent EP0706509B1, “SHORT CHAIN 2-HYDROXYCARBOXYLIC ACID-BASED DERIVATIVES OF CERAMIDES” (DSM N.V., priority 1994, dated 1995):

Experiments:
[1] = system: barrier function of the skin; assay: Skin colour by chromametry (Minolta Chromameter CR 300) on volar forearms, 7 days of treatment then SDS irritation; type: in vivo, human; set-up: key: CIE a* value (green-red axis); higher = redder skin
Description: Skin colour was measured by chromametry with a Minolta Chromameter CR 300 (Minolta, Ahrensburg, Germany) in compliance with the Commission International de l'eclairage (CIE) system, according to which the registration of colour is adjusted to the non-linear colour sensitivity of human eye. A colour is expressed in a three-dimensional coordinate system with green-red (a*), yellow-blue (b*) and L* axes (brightness). The skin surface is illuminated by a Xenon flash light and remitted light registered and analysed by a photoreceiver. Chromametry is sensitive and accurate for the characterization of redness of skin irritation. In inflamed skin a positive change on the a* axis is observed, towards red. Each value was the average of three recordings.
(§1) Two panels of each five female volunteers at the age of 19-55 years with healthy skin were included in the test.
(§2) Measurements were carried out at a temperature of 22±1°C and a relative humidity of 60±10%. Subjects were accustomed to ambient conditions for 20 min prior to any measurement. The test was carried out on the volar forearms. Initially untreated skin was measured in all six areas to find baseline values. Then the five test products were applied, one area remained untreated. The dose of applicaton was about 2 mg/cm^2. In the following 7 days a home application in the morning and evening took place. Measurements were evaluated during the treatment period on day 7 two hours after the last daily application. Then the test areas on both forearms were treated with a 5% aqueous solution of sodium lauryl sulphate (SDS) and an occlusive dressing applied to induce skin irritation. The dressing was removed two hours later, and the regions were gently washed with water and air-dried. After one hour the measurements were done when the level had stabilised.
(§3) Use of other cosmetic products was restricted on the test areas throughout the whole study.
(§4) • before start treatment; • two hours after last application on day 7; • 1 hour after irritation with SDS (2 hours under occlusion).

healthy human skin [2] = assay: Skin roughness by profilometry (mean depth of roughness Rz) on volar forearms, 7 days of treatment then SDS irritation; type: in vivo; set-up: unit not given here
Description: Roughness was measured by profilometry using a stylus instrument (OFR 01; Romano GmbH, Cologne, Germany). Silicon impressions from the test areas of the volar forearm were prepared. The dental mass Silasoft N® (Detax-K. Huber K.G., Karlsruhe, Germany) was used for making the impressions. The parameter mean depth of roughness Rz (DIN 4768/1) was measured. By convention the scan length was divided into […] equal-sized areas. In each area the distance from the highest peak to the lowest trough was established. The average of these five distances is Rz.
as §1, §2, §3, §4

[3] = system: barrier function of the skin; assay: Trans-epidermal water loss (TEWL, Tewameter) on volar forearms, 7 days of treatment then SDS irritation; type: in vivo, human; set-up: unit not given here
Description: Measurements of trans-epidermal water loss (TEWL) were performed with the Tewameter (Courage & Khazaka, Cologne, Germany). The Tewameter is a device for measurement of water evaporation on skin surfaces based on the diffusion principle discovered by A. Fick in 1885.
as §1, §2, §3, §4

healthy human skin [4] = assay: Desquamation: dansyl chloride fluorescence extraction score on volar forearms, 7 days of treatment then SDS irritation; type: in vivo
Description: The stratum corneum was stained with dansyl chloride. Dansyl chloride was mixed to homogeneity at 5% (w/w) in petrolatum and applied to the volar forearms of the volunteers under semi-occlusive tape, one day before the beginning of the study. After 24 h the patches were removed and any excess material wiped off under running tape water. Fluorescence was assessed under UV illumination for intensity and homogeneity by a trained evaluator using the following scale for fluorescence extraction: • 0 : no fluorenscence extraction • 1 : slight fluorescence extraction • 2 : moderate fluorescence extraction • 3 : strong fluorescence extraction • 4 : complete fluorescence extraction. Half scores were used when needed.
as §1, §2, §3, §4

[5] = 0.05% in oil-in-water emulsion, 7 days pretreatment, after SDS (5% aqueous, 2 h occlusion, measured 1 h later)
[6] = 0.05% in oil-in-water emulsion, about 2 mg/cm^2 morning and evening, after 7 days
[7] = 0.05% in oil-in-water emulsion, day 0 (baseline before start of treatment)
[8] = 0.2% in oil-in-water emulsion, 7 days pretreatment, after SDS (5% aqueous, 2 h occlusion, measured 1 h later)
[9] = 0.2% in oil-in-water emulsion, about 2 mg/cm^2 morning and evening, after 7 days
[10] = 0.2% in oil-in-water emulsion, day 0 (baseline before start of treatment)
[11] = 0.5% in oil-in-water emulsion, 7 days pretreatment, after SDS (5% aqueous, 2 h occlusion, measured 1 h later)
[12] = 0.5% in oil-in-water emulsion, about 2 mg/cm^2 morning and evening, after 7 days
[13] = 0.5% in oil-in-water emulsion, day 0 (baseline before start of treatment)
[14] = 0.05% in oil-in-water emulsion, 7 days pretreatment, after SDS (5% aqueous, 2 h occlusion), scale 0 to 4
[15] = 0.05% in oil-in-water emulsion, morning and evening, after 7 days, scale 0 (no) to 4 (complete fluorescence extraction)
[16] = 0.05% in oil-in-water emulsion, day 0 (baseline), scale 0 (no) to 4 (complete fluorescence extraction)
[17] = 0.2% in oil-in-water emulsion, 7 days pretreatment, after SDS (5% aqueous, 2 h occlusion), scale 0 to 4
[18] = 0.2% in oil-in-water emulsion, day 0 (baseline), scale 0 (no) to 4 (complete fluorescence extraction)
[19] = 0.5% in oil-in-water emulsion, 7 days pretreatment, after SDS (5% aqueous, 2 h occlusion), scale 0 to 4
[20] = 0.5% in oil-in-water emulsion, day 0 (baseline), scale 0 (no) to 4 (complete fluorescence extraction)

| Compound | skin colour [1, 5] | skin colour [1, 6] | skin colour [1, 7] | skin colour [1, 8] | skin colour [1, 9] | skin colour [1, 10] | skin colour [1, 11] | skin colour [1, 12] | skin colour [1, 13] | Skin roughness (healthy human skin [2]; [5]) | Skin roughness (healthy human skin [2]; [6]) | Skin roughness (healthy human skin [2]; [7]) | Skin roughness (healthy human skin [2]; [8]) | Skin roughness (healthy human skin [2]; [9]) | Skin roughness (healthy human skin [2]; [10]) | Skin roughness (healthy human skin [2]; [11]) | Skin roughness (healthy human skin [2]; [12]) | Skin roughness (healthy human skin [2]; [13]) | TEWL [3, 5] | TEWL [3, 6] | also measured |
| --- | --- | --- | --- | --- | --- | --- | --- | --- | --- | --- | --- | --- | --- | --- | --- | --- | --- | --- | --- | --- | --- |
| CCCCCCCCCCCCCC[C@@H](O)[C@@H](O)[C@H](CO)NC(=O)[C@H](C)O [Cer6/OH-C3, N-[(S)-2-hydroxypropanoyl]-phytosphingosine] | 13.1 ± 1.8 | 7.6 ± 0.8 | 6.7 ± 0.4 | 11.4 ± 0.6 | 8.5 ± 0.9 | 7.8 ± 0.9 | 9.5 ± 1.3 | 8.7 ± 0.7 | 8.2 ± 0.5 | 96.9 ± 8.1 | 109.1 ± 16.4 | 131.2 ± 15.5 | 92.9 ± 9.7 | 91.9 ± 9.9 | 104.7 ± 9 | 116.5 ± 14.8 | 112.9 ± 15.2 | 131.1 ± 15.2 | 16.6 ± 5.2 | 8.2 ± 3.5 | TEWL [3, 7]: 5 ± 1.1; TEWL [3, 8]: 13.5 ± 6; TEWL [3, 9]: 7.2 ± 1.6; TEWL [3, 10]: 6.1 ± 1.5; TEWL [3, 11]: 11.6 ± 3.3; TEWL [3, 12]: 8 ± 1.9; TEWL [3, 13]: 6 ± 1.2; Desquamation (fluorescence extraction) (healthy human skin [4]; [14]): 0,8 ± 0,4; Desquamation (fluorescence extraction) (healthy human skin [4]; [15]): 0,2 ± 0,4; Desquamation (fluorescence extraction) (healthy human skin [4]; [16]): 0; Desquamation (fluorescence extraction) (healthy human skin [4]; [17]): 1 ± 0; Desquamation (fluorescence extraction) (healthy human skin [4]; 0.2% in oil-in-water emulsion, morning and evening, after 7 days, scale 0 (no) to 4 (complete fluorescence extraction)): 0,2 ± 0,4; Desquamation (fluorescence extraction) (healthy human skin [4]; [18]): 0; Desquamation (fluorescence extraction) (healthy human skin [4]; [19]): 1 ± 0; Desquamation (fluorescence extraction) (healthy human skin [4]; [20]): 0 |
| CCCCCCCCCCCCCC[C@@H](O)[C@@H](O)[C@H](CO)NC(=O)C(O)CCCCCC (stereo partly shown) [Cer6/OH-C8, N-(2-hydroxyoctanoyl)-phytosphingosine] | 9.2 ± 0.8 | 6.2 ± 1.2 | 7 ± 1.2 | 8.4 ± 0.5 | 6.3 ± 0.7 | 6.8 ± 0.5 | 10.2 ± 0.9 | 8.3 ± 1.1 | 6.5 ± 0.6 | 121.8 ± 11.6 | 119.1 ± 8.8 | 133.6 ± 12.5 | 118.7 ± 7.6 | 118.5 ± 8.2 | 147.1 ± 15.5 | 82.2 ± 7.1 | 98 ± 6.9 | 111.2 ± 6 | 14.7 ± 4.2 | 5.7 ± 1.9 | TEWL [3, 7]: 5.7 ± 1.3; TEWL [3, 8]: 10.12 ± 1.9; TEWL [3, 9]: 5.5 ± 1.6; TEWL [3, 10]: 5.4 ± 0.7; TEWL [3, 11]: 13 ± 4.4; TEWL [3, 12]: 7.9 ± 2.7; TEWL [3, 13]: 6.5 ± 2.2; Desquamation (fluorescence extraction) (healthy human skin [4]; [14]): 0.8 ± 0.4; Desquamation (fluorescence extraction) (healthy human skin [4]; [15]): 0,4 ± 0,5; Desquamation (fluorescence extraction) (healthy human skin [4]; [16]): 0; Desquamation (fluorescence extraction) (healthy human skin [4]; [17]): 0,8 ± 0,4; Desquamation (fluorescence extraction) (healthy human skin [4]; [18]): 0; Desquamation (fluorescence extraction) (healthy human skin [4]; [19]): 1 ± 0; Desquamation (fluorescence extraction) (healthy human skin [4]; 0.5% in oil-in-water emulsion, morning and evening, after 7 days, scale 0 (no) to 4 (complete fluorescence extraction)): 0,4 ± 0,5; Desquamation (fluorescence extraction) (healthy human skin [4]; [20]): 0 |
